According to patent publication US20150065416A1, “NOVEL DRUG COMBINATION” (FAB PHARMA SAS, priority 2013, published 2015):

Key:
A. baumannii RCH-69 = assay: Mouse model of A. baumannii pneumonia, Study 3: survival; format: in vivo, Acinetobacter baumannii; details: neutropenic C3H/HeN mice, q 8 h I.P. 3 days, compound (I) 200 mg/kg, meropenem 50 mg/kg, colistin 125000 Ul/kg
Description: The bacterial inoculum was prepared in order to obtain a suspension containing 10^8 CFU/mL of Acinetobacter baumannii in saline.
Experimentations were performed with six-week old female C3H/HeN mice (18-20 g, Breeding Centre JANVIER (Ile saint Genest Mayenne 53)) because of their particular susceptibility to Acinetobacter baumannii and the reproducibility of the results (inbreeding in the breed). Each mouse was individually marked and housed in cages containing five animals/cage under ventilated and controlled (temperature and humidity) atmosphere.
The mice were rendered transiently neutropenic by 2 intra-peritoneal (IP) injections of 150 μL of cyclophosphamide (Endoxan® 150 mg/kg) 4 (D-4) and 3 (D-3) days before the Acinetobacter baumannii inoculation (Day 0). This transient immunosuppression was sufficient to facilitate the development of the A. baumannii pneumonia while allowing the recovery of the neutrophil influx 2 (Day 2) days after inoculation in order to avoid or limit a systemic bacterial dissemination.
Mice were anesthetized by a mixture of oxygen and isoflurane. The bacterial inoculation was performed on Day 0 by intra-tracheal installation using an endotracheal catheter (50 μl of the suspension, thus 5.106 CFU). The positioning of the catheter in the trachea (instead of in the oesophagus) was checked by a “ring test”. The bacterial count in lungs was checked for all study groups by sacrificing one mouse immediately after inoculation.
Survival observations were assessed twice daily, up to 4 days post infection. The survival rates were compared with the Chi-square test or the Fisher exact test as appropriate. The survival curves were compared by the Kaplan-Meier method.
The aim of this experiment was to assess the survival rate of transiently neutropenic female C3H/HeN mice administered, 3 hours post-inoculation of A. baumannii RCH-69 via intra-tracheal route, with a compound (I) via intra-peritoneal route at 200 mg/kg 3 times daily (every 8 hours) for 3 days alone and in combination with meropenem at 50 mg/kg 3 times daily (every 8 hours) for 3 days or with colistin at 125000 UI/kg 3 times daily (every 8 hours) for 3 days. 85 mice were allocated into 6 groups as follows.
Six vials of 8 mL each containing 94.2 mg/mL of compound (I) and 47.1 mg/mL of PVP 12 PF (Kollidon 12 PF) were prepared and stored between +2° C. and +8° C. Following storage, each vial was homogenized by manual shaking and diluted by 2-fold in 13.72 mg/mL NaCl aqueous solution in order to obtain a 47.1 mg of compound (I)/mL isotonic suspension. In Groups 2, 4 and 5, mice were administered with 100 μL of the 47.1 mg/mL compound (I) suspension.

A. baumannii SAN-94040 = assay: Additional mouse model of A. baumannii pneumonia (Example 7): survival; format: in vivo, Acinetobacter baumannii
Description: The bacterial inoculum was prepared in order to obtain a suspension containing 10^8 CFU/mL of Acinetobacter baumannii in saline, unless indicated otherwise.
Experimentations were performed with six-week old female C3H/HeN mice (18-20 g, Harlan Laboratories) because of their particular susceptibility to Acinetobacter baumannii. Each mouse was individually marked and housed in cages containing five animals/cage under ventilated and controlled (temperature and humidity) atmosphere.
The mice were rendered transiently neutropenic by 2 intra-peritoneal (IP) injections of 150 μL of cyclophosphamide (150 mg/kg) 4 (D-4) and 3 (D-3) days before the Acinetobacter baumannii inoculation (Day 0).
Mice were infected with 50 μL the prepared bacterial suspension (inoculums depending on experiment) via intra-tracheal inoculation of mouse. In the study, three animals (Group 1) were sacrificed after inoculation to determine bacterial burden in lungs at the time of infection. Lungs were aseptically removed, weighed and homogenized in 1 mL of 0.9% NaCl. Homogenates were serially diluted and plated on TSA agar. Plates were incubated overnight at 37° C. in 5% CO2. Following incubation, colonies were counted for bacterial growth.
Animal survival was assessed every day for 7 days. Survival data were tabulated and a Probit analysis performed to determine the 50% protective dose (PD50) for each group.
The aim of this experiment was to assess the survival rate of transiently neutropenic female C3H/HeN mice administered, 3 hours post-inoculation of A. baumannii SAN-94040 via intra-tracheal route, with compound (I) via intra-peritoneal route at 200 mg/kg 3 times daily (every 8 hours) for 1 day alone and in combination with meropenem at 30 mg/kg 3 times daily (every 8 hours) for 1 day.

[1] = system: Staphylococcus aureus (MSSA, MRSA, VISA, VRSA); details: VISA and VRSA strains; cited from earlier work
[2] = system: MSSA, MRSA and VISA infections; details: murine model; cited from earlier work
S. aureus = details: healthy human volunteers, Phase I study; cited from earlier work
[3] = 24 h after RCH strain infection
[4] = 48 h after RCH strain infection
[5] = 72 h after RCH strain infection
[6] = 96 h after RCH strain infection
[7] = Example 7, 24 h after SAN-94040 infection, compound (I) 200 mg/kg, meropenem 30 mg/kg, colistin 125000 UI/kg Q8h I.P. for 1 day
[8] = Example 7, 24 h after infection, doses as E246
[9] = Example 7, 48 h after infection, doses as E246
[10] = Example 7, 72 h after infection, doses as E246
[11] = Example 7, 96 h after infection, doses as E246

Structure (SMILES): CCc1cc(O)c(Oc2ccc(C(N)=O)cc2F)cc1F [compound (I), 4-(4-ethyl-5-fluoro-2-hydroxyphenoxy)-3-fluorobenzamide]
- No. of survivors (A. baumannii RCH-69; 0 h after RCH strain infection): 13
- survivors (%) (A. baumannii RCH-69; 0 h after RCH strain infection): 100%
- No. of survivors (A. baumannii RCH-69; [3]): 5
- survivors (%) (A. baumannii RCH-69; [3]): 38%
- No. of survivors (A. baumannii RCH-69; [4]): 0
- No. of survivors (A. baumannii RCH-69; [5]): 0
- No. of survivors (A. baumannii RCH-69; [6]): 0
- No. of survivors (A. baumannii SAN-94040; [7]): 10
- survivors (%) (A. baumannii SAN-94040; [8]): 100%
- No. of survivors (A. baumannii SAN-94040; [9]): 8
- survivors (%) (A. baumannii SAN-94040; [9]): 80%
- No. of survivors (A. baumannii SAN-94040; [10]): 6
- survivors (%) (A. baumannii SAN-94040; [10]): 60%
- No. of survivors (A. baumannii SAN-94040; [11]): 6
- survivors (%) (A. baumannii SAN-94040; [11]): 60%
- survival rate (A. baumannii SAN-94040; Example 7, text, time not stated): 60%
- in vitro activity [1]: highly active
- in vivo activity [2]: active in vivo
- ex vivo activity (S. aureus): ex vivo bactericidal activity

Structure (SMILES): C[C@@H](O)[C@H]1C(=O)N2C(C(=O)O)=C(S[C@@H]3CN[C@H](C(=O)N(C)C)C3)[C@H](C)[C@H]12 [meropenem]
- No. of survivors (A. baumannii RCH-69; 0 h after RCH strain infection): 14
- survivors (%) (A. baumannii RCH-69; 0 h after RCH strain infection): 100%
- No. of survivors (A. baumannii RCH-69; [3]): 14
- survivors (%) (A. baumannii RCH-69; [3]): 100%
- No. of survivors (A. baumannii RCH-69; [4]): 0
- No. of survivors (A. baumannii RCH-69; [5]): 0
- No. of survivors (A. baumannii RCH-69; [6]): 0
- No. of survivors (A. baumannii SAN-94040; [7]): 10
- survivors (%) (A. baumannii SAN-94040; [8]): 100%
- No. of survivors (A. baumannii SAN-94040; [9]): 10
- survivors (%) (A. baumannii SAN-94040; [9]): 100%
- No. of survivors (A. baumannii SAN-94040; [10]): 10
- survivors (%) (A. baumannii SAN-94040; [10]): 100%
- No. of survivors (A. baumannii SAN-94040; [11]): 10
- survivors (%) (A. baumannii SAN-94040; [11]): 100%
